Test results taken from US11465986B2, “Crystal form of c-MET inhibitor and salt form thereof and preparation method therefor” (FUJIAN AKEYLINK BIOTECHNOLOGY CO., LTD., priority 2018, dated 2022).

Assay: Stability test of the crystal forms (HPLC impurity content)
Assay type: physicochemical
Conditions: for Stability, conclusion in words: stress conditions (high temperature, high humidity, light)
Procedure: The method for High Performance Liquid Chromatograph (HPLC) in the present disclosure
Instrument Model: Agilent 1200 High Performance Liquid Chromatograph
The analysis method is as follows: […]
About 10 mg of the crystal form B of the compound represented by formula (II) was weighted and placed under stability test conditions, and the samples were collected and analyzed after 5 days, 10 days, and 1 month.
About 10 mg of the crystal form C of the compound represented by formula (III) was weighted and placed under stability test conditions, and the samples were collected and analyzed after 5 days, 10 days, and 1 month respectively.

[1] = form B, 40° C. relative humidity 75%, 1 month
[2] = form B, 40° C. relative humidity 75%, 10 days
[3] = form B, 60° C. relative humidity 75%, 1 month
[4] = form B, 60° C. relative humidity 75%, 10 days
[5] = form B, Light (total illuminance = 1.2 × 106 Lux · hr/near ultraviolet = 200 w · hr/m^2)
[6] = form B, Relative humidity 92.5%, 1 month
[7] = form B, Relative humidity 92.5%, 5 days
[8] = form B, Relative humidity 92.5%, 10 days
[9] = form C, Light (total illuminance = 1.2 × 106 Lux · hr/near ultraviolet = 200 w · hr/m^2)

C[C@H](c1cccc(-c2ncc(OCC3CCN(C)CC3)cn2)c1)n1cc(-c2cc(C#N)ccn2)cc(F)c1=O.Cl
Impurity content, relative retention time 0.77 (form B, 0 day): 0.05% | Impurity content, relative retention time 1.04 (form B, 0 day): 2.18% | Total impurities (form B, 0 day): 2.24% | Impurity content, relative retention time 0.77 [1]: 0.23% | Impurity content, relative retention time 1.04 [1]: 1.95% | Total impurities [1]: 2.18% | Impurity content, relative retention time 0.77 [2]: 0.18% | Impurity content, relative retention time 1.04 [2]: 2.02% | Total impurities [2]: 2.2% | Impurity content, relative retention time 0.77 [3]: 0.36% | Impurity content, relative retention time 1.04 [3]: 1.76% | Total impurities [3]: 2.12% | Impurity content, relative retention time 0.77 [4]: 0.42% | Impurity content, relative retention time 1.04 [4]: 1.72% | Total impurities [4]: 2.13% | Impurity content, relative retention time 0.77 (form B, 60° C., 1 month): 0.05% | Impurity content, relative retention time 1.04 (form B, 60° C., 1 month): 2.27% | Impurity content, relative retention time 1.4 (form B, 60° C., 1 month): 0.28% | Impurity content, relative retention time 1.41 (form B, 60° C., 1 month): 0.07% | Impurity content, relative retention time 1.43 (form B, 60° C., 1 month): 0.06% | Impurity content, relative retention time 1.49 (form B, 60° C., 1 month): 0.05% | Total impurities (form B, 60° C., 1 month): 2.78% | Impurity content, relative retention time 0.77 (form B, 60° C., 5 days): 0.06% | Impurity content, relative retention time 1.04 (form B, 60° C., 5 days): 2.18% | Impurity content, relative retention time 1.4 (form B, 60° C., 5 days): 0.06% | Total impurities (form B, 60° C., 5 days): 2.3% | Impurity content, relative retention time 1.04 (form B, 60° C., 10 days): 2.16% | Impurity content, relative retention time 1.4 (form B, 60° C., 10 days): 0.12% | Total impurities (form B, 60° C., 10 days): 2.29% | Impurity content, relative retention time not resolvable (one of 1.4 to 1.49) [5]: 0.17% | Total impurities [5]: 2.39% | Impurity content, relative retention time 0.77 [6]: 0.2% | Impurity content, relative retention time 1.04 [6]: 2.03% | Total impurities [6]: 2.23% | Impurity content, relative retention time 0.77 [7]: 0.13% | Impurity content, relative retention time 1.04 [7]: 2.08% | Total impurities [7]: 2.21% | Impurity content, relative retention time 0.77 [8]: 0.16% | Impurity content, relative retention time 1.04 [8]: 2.04% | Total impurities [8]: 2.2% | Stability, conclusion in words: stable under high temperature and light conditions

C[C@H](c1cccc(-c2ncc(OCC3CCN(C)CC3)cn2)c1)n1cc(-c2cc(C#N)ccn2)cc(F)c1=O [crystal form C of the compound represented by formula (III)]
Total impurities (form C, 0 day): 2.22% | Total impurities (form C, 40° C. Relative humidity 75%, 1 month): 2.31% | Total impurities (form C, 40° C. Relative humidity 75%, 10 days): 2.26% | Total impurities (form C, 60° C. Relative humidity 75%, 1 month): 12.75% | Total impurities (form C, 60° C. Relative humidity 75%, 10 days): 6.04% | Total impurities (form C, 60° C., 1 month): 2.35% | Total impurities (form C, 60° C., 5 days): 2.27% | Total impurities (form C, 60° C., 10 days): 2.35% | Impurity content, relative retention time 0.45 (column inferred) [9]: 0.05% | Impurity content, relative retention time 0.7 (column inferred) [9]: 0.12% | Impurity content, relative retention time 0.75 (column inferred) [9]: 0.05% | Impurity content, relative retention time 0.87 or 0.94 (column inferred) [9]: 0.24% | Total impurities [9]: 2.94% | Total impurities (form C, Relative humidity 92.5%, 1 month): 2.28% | Total impurities (form C, Relative humidity 92.5%, 5 days): 2.29% | Total impurities (form C, Relative humidity 92.5%, 10 days): 2.22% | Stability, conclusion in words: relatively stable under high temperature and high humidity conditions
